Assay results as given in patent publication US11523612B2, “Pesticidal composition comprising oxime carbamate and use thereof” (priority 2017, dated 2022).

Assays:
[1] = Solubility Test 1: oxamyl dissolved in solvent systems, crystallization or precipitation observed; type: physicochemical
Description: Samples of each solution were kept at −6° C. and −18° C. for 7 days, after which the degree of crystallization or precipitation of oxamyl was observed.

[2] = as above; type: physicochemical; remark: listed apart in the source
[3] = 40 g oxamyl in Methanol:Water 50:50 g
[4] = 40 g oxamyl in Methanol:Water 80:20 g
[5] = 40 g oxamyl in Methanol:Water:Propylene Carbonate 30:20:50 g
[6] = 40 g oxamyl in Methanol:Water:Propylene Carbonate 40:30:30 g
[7] = 40 g oxamyl in Methanol:Water:Propylene Carbonate 40:40:20 g
[8] = 40 g oxamyl in Methanol:Water:Propylene Carbonate 50:40:10 g
[9] = 40 g oxamyl in Methanol:Water:Propylene Carbonate 60:20:20 g
[10] = 40 g oxamyl in Methanol:Water:Propylene Carbonate 75:20:5 g

Q: With `CNC(=O)O/N=C(\SC)C(=O)N(C)C` [Oxamyl, methyl 2-(dimethylamino)-N-[[(methylamino)carbonyl]oxy]-2-oxoethanimidothioate] as the compound, how does the “Observations after 7 days at −6° C.” value [1, 3] read?
A: Mild precipitation

Q: And the “Observations after 7 days at −18° C.” value [1, 3]?
A: Significant precipitation

Q: And the “Observations at room temperature” value [1, 3]?
A: Clear solution

Q: And the “Observations after 7 days at −6° C.” value [1, 4]?
A: Clear solution

Q: What about the “Observations after 7 days at −18° C.” value [1, 4] of the same compound?
A: Significant precipitation

Q: What about the “Observations after 7 days at −6° C.” value [1, 5] of the same compound?
A: Clear solution

Q: And the “Observations after 7 days at −18° C.” value [1, 5]?
A: Clear solution

Q: And the “Observations after 7 days at −6° C.” value [1, 6]?
A: Clear solution

Q: And the “Observations after 7 days at −18° C.” value [1, 6]?
A: Clear solution

Q: And the “Observations at room temperature” value [1, 6]?
A: Clear solution

Q: And the “Observations after 7 days at −6° C.” value [1, 7]?
A: Clear solution

Q: What about the “Observations after 7 days at −18° C.” value [1, 7] of the same compound?
A: Clear solution

Q: What about the “Observations at room temperature” value [1, 7] of the same compound?
A: Clear solution

Q: And the “Observations after 7 days at −6° C.” value [1, 8]?
A: Clear solution

Q: And the “Observations after 7 days at −18° C.” value [1, 8]?
A: Clear solution

Q: What about the “Observations at room temperature” value [1, 8] of the same compound?
A: Clear solution

Q: What about the “Observations after 7 days at −6° C.” value [1, 9] of the same compound?
A: Clear solution

Q: What about the “Observations after 7 days at −18° C.” value [1, 9] of the same compound?
A: Clear solution

Q: And the “Observations at room temperature” value [1, 9]?
A: Clear solution

Q: What about the “Observations after 7 days at −6° C.” value [1, 10] of the same compound?
A: Clear solution

Q: And the “Observations after 7 days at −18° C.” value [1, 10]?
A: Clear solution

Q: What about the solubility for oxamyl ([1]; solvent system comprising methanol, water and propylene carbonate, temperatures down to −18° C.) of the same compound?
A: significantly higher solubility

Q: What about the “Observations at room temperature” value [2, 4] of the same compound?
A: Clear solution

Q: What about the “Observations at room temperature” value [2, 5] of the same compound?
A: Clear solution

Q: What about the “Observations at room temperature” value [2, 10] of the same compound?
A: Clear solution
